One molecule from patent US11806343B2, “Inhibitors of DUX4 induction for regulation of muscle function” (Sonic Master Limited, priority 2017, dated 2023) can be followed below.

The subject of data set [1] is 4qA and D4Z4 regions of chromosome 4. Put plainly: Bisulfite sequencing of DNA methylation at 4qA and D4Z4 regions in FSHD-affected myotubes. It is filed as cell-based, human. To be noted: Genea049 FSHD-affected myotubes, 10 nM, 100 nM or 1 μM, myotube day 3. The method, then: Healthy (Genea015) or FSHD-affected (Genea049) MSC-derived myoblasts were cultured in Myoblast Media (Genea Biocells) while performing media changes every other day. When cells reached confluence, the medium was switched to Myottibe Medium (Genea Biocells) without any further media changes. On myotube day 3, cells were trypsinized and cell pellets were prepared for bisulfite sequencing analysis. Genomic DNA was isolated from cell pellets using QIAamp DNA Blood Mini Kit (Qiagen) and bisultite converted using the EpiTect Kit (Qiagen). The 4qA and D4Z4 regions were amplified and cloned into the pCR2.1 TOPO vector. The 4qA or D4Z4 containing plasmids were transformed into TOP10 chemically competent E. coli and selected for kanamycin resistance. Sequencing of kanamycin resistant colonies was completed by Sequegen and methylation analysis was performed using Bisulfite Sequencing DNA Methylation Analysis (BISMA) online software.
FSHD-affected. (Genea049) embryonic stem cell-derived myoblasts were cultured in Myoblast Media (Genea Biocells) while performing media changes every other day. When cells reached confluence, the medium was switched to Myotube Medium (Genea. Biocells) without any further media changes. […] On myotube day 3, myotubes were trypsinized and cell pellets were prepared for bisulfite sequencing analysis. Refer to the FIG. 1 legend for additional details.

The test system of the next data set is PRKDC. In words: Immunofluorescence of nuclear phosphorylated PRKDC^2609 in primary myocytes. It is filed as cell-based, human. The settings on record: 100 nM or 500 nM, 1 hour. The method, then:
(§1) Patient biopsy-derived primary myoblasts were seeded to a collagen-I coated plate in primary myoblast medium. Medium was changed every other day until cells reached 80% confluence followed by a switch to primary myotube medium. […] PRKDC (phosphorylated PRKDC^2609), active SRC (phosphorylated SRC^416), and nuclei.

In another data set the test system is SRC. In words: Immunofluorescence of nuclear phosphorylated SRC^416 in primary myocytes. It is filed as cell-based, human. The settings on record: 100 nM or 500 nM, 1 hour. As to the method:
as §1

The test system of a further data set is myotube marker genes. In words: Nanostring panel transcript analysis, myogenic genes. To be noted: 17MB026 primary myotubes, 30 nM-3 μM, 3 days. Format: cell-based, human. As to the method:
17MB026 primary FSHD-affected patient myoblasts (obtained from the University of Rochester FSHD Biorepository) were thawed and cultured as described in Rickard et al., 2015 in primary myoblast medium. Cells (4000 per well) were seeded to a collagen-I coated 96-well plate in 100 μL primary myoblast medium. Medium was changed every other day until cells reached 80% confluence followed by a switch to 100 μL per well primary myotube medium. […] Cells were lysed after 3 days of myotube formation using 10 μL of iScript Buffer (Biorad) per well. The resulting lysates were frozen at −30° C. After thaw, 5 μL of each lysate was combined with a custom-designed Nanostring transcript probe and capture codeset. Probes were hybridized to lysates and run cartridge was loaded and run per standard protocol. Normalization and background subtraction were performed using the nSolver 3.0 software using standard conditions DUX4 target gene and myotube marker gene expression values were normalized to a standard set of housekeeping genes. Duplicate wells of each condition were averaged.

The next data set concerns DUX4. In words: FSHD primary patient biopsy myotube immunocytochemistry, DUX4 expression. It is filed as cell-based, human. The method, then: FIG. 10 provides the workflow for assays performed with patient biopsy-derived muscle. On Day 0, patient myoblasts are passaged in a 96-well dish in primary myoblast medium (Genea BioCells). On Day 2, the medium is changed to […].
17MB026 primary FSHD-affected patient myoblasts (obtained from the University of Rochester FSHD Biorepository) were thawed and cultured as described in Rickard et al., 2015 in primary myoblast medium. Cells (6000 per well) were seeded to a collagen-I coated 96-well plate in 100 μl primary myoblast medium. Medium was changed every other day until cells reached 80% confluence followed by a switch to 100 μL per well primary myotube medium. […] Cells were fixed and analyzed after 2.5 days of myotube formation by immunocytochemistry and high-content imaging for DUX4, H3.X/Y, Myosin Heavy Chain expression and nuclei number. Five or six replicate wells were averaged per condition, […]

Data set [2] is described as follows: Tissue distribution study, brain and muscle. Format: in vivo, CD-1 mice. The settings on record: mouse; for Uninjected muscle exposure / brain exposure: samples at 1 hour and 24 hours. The method, then: Intraperitoneal injection, which provides the drug via absorption into the mesenteric blood supply and is thus subject to hepatic first-pass metabolism, was used to approximate oral dosings total of 96 mice were utilized: 3 naive CD-1 male mice and 3 naïve CD-1 female mice were dosed per route of administration per 2 doses plus 3 naive CD-1 male mice and 3 naïve CD-1 female mice were per route of administration per dose for tissue collection. Following administration, blood, brain, and muscle samples were collected as follows; Two blood samples were collected from each mouse at 2 distinct timepoints over 24 bout post-dose to include 0.25, 0.5, 1, 2, 4, 8, and 24 hours. Blood samples were centrifuged to obtain plasma samples. For each time point, duplicate aliquots of plasma were transferred into an appropriately labeled sample tube containing a volume of buffer. The diluted plasma samples were stored at −20° C. for the first 24 hours and then transferred to −80° C. 24 hours of processing. Terminal brain and muscle samples were collected at 1 hour and 24 hours after administration. Tissue samples were temporarily put on dry ice and then stored at −20° C. for the first 24 hours and then transferred to −80° C. 24 hours of collection Plasma, brain and muscle samples were analyzed for test substance quantification using a method based on protein precipitation followed by HPLC-MS/MS analysis within optimized bioanalytical method.
FIG. 31B. […] For IM injected animals, both the injected gastrocnemius muscle and the contralateral (uninjected gastrocnemius)) muscle were collected. […] Concentrations are shown as mean with SD, N=6

In general, IC50 refers to the concentration at which inhibition is half-maximal. With `CNC(=O)c1cc(Oc2ccc(NC(=O)Nc3cc(C(C)(C)C)nn3-c3ccc4ncccc4c3)c(F)c2)ccn1` [GBC0905, Rebastinib], in data set [1], the “DNA methylation levels at 4qA or D4Z4 regions” value was “No statistically significant effect”. Further, in the data set on PRKDC, the “intensity distribution of nuclear phosphorylated PRKDC^2609 (kinase activity)” value is reported as “significant shift towards lower intensity levels”. Moreover, the “intensity distribution of nuclear phosphorylated SRC^416 (kinase activity)” value in the data set with SRC was “significant shift towards lower intensity levels”. In the data set with myotube marker genes, the “expression of characteristic myotube genes” value is recorded as “does not decrease expression of queried characteristic myotube genes”. Also, the “DUX4 expression, dose curve” value in the data set on DUX4 (17MB026 primary myotubes, 10-point dose curve 2 nM-5 μM, 2.5 days) was “dose-dependent decrease of DUX4 expression”. Moreover, the IC50 in the data set on DUX4 (Homo sapiens, Myotube, 17MB026 primary FSHD patient myotubes, read-out: IC50 value, DUX4-suppressive effect) was around 100 nM. Besides, in data set [2] (24 hours after IM injection at 10 mg/kg), the Brain concentration entry is reported as “below the Lower Limit of Quantification (LLOQ)”. Besides, the Uninjected muscle exposure is recorded as at most 157 ng/g in data set [2] (intramuscular administration) and “up to 1336 ng/g” in data set [2] (intraperitoneal administration). Also, the results for the brain exposure in data set [2] (intramuscular administration) and in data set [2] (intraperitoneal administration) were at most 351 ng/g and “up to 441 ng/g”, respectively. Also, in data set [2] (intramuscular dosing, after 24 hours), the “Exposure of the injected muscle (gastrocnemius)” value stood at 1441667 ng/g.
